The term IC50 denotes the point on the concentration scale where inhibition reaches its midpoint.

Counter-ions that a name gives are not always drawn. Like-named read-outs stand apart in the source and are kept apart here.

The text below walks through data of patent publication US11286263B2, “Macrocyclic fluorine substituted indole derivatives” (The Broad Institute, Inc., priority 2017, dated 2022).

One data set relates to SK-BR-3. As to the kind of experiment: Antiproliferation assay SK-BR-3 (Assay 7). It counts as cell-based. The settings on record: SK-BR-3 cells, CellTiter-Glo, single determinations, read-out: IC50 Antiproli SK-BR-3. How it is done:
(§1) Assessment of the Anti-Proliferative Effect of Compounds in Different Cell Lines
(§2) The impact of compounds on the proliferation of different cell lines was assessed using the CellTiter-Glo® Luminescent Cell Viability reagent from Promega (G7573).
(§3) In parallel, cells were plated in a reference (day 0) plate for time zero determination.
(§4) Rim wells were excluded. The cells were incubated for 72 h hours in a humidified incubator at 37° C. The day 0 plate was measured by adding 30 μL/well of CTG solution (CellTiter-Glo® Luminescent Cell Viability reagent, Promega G7573) to time zero wells in the reference plate followed by a 10 minutes incubation and luminescence reading at 0.1 ms. using the PHERAstar FS microplate reader (BMG Labtech).
(§5) After 72 h incubation, the treated plates were measured in the same way as the day 0 plate mentioned above.
For orientation: Cellular ATP, detected with luciferase, serves as a proxy for viable cell number.

Another data set has as its system NCI-H23. As to the kind of experiment: Antiproliferation assay NCI-H23 (Assay 7). The note with it: NCI-H23 cells, CellTiter-Glo, single determinations, read-out: IC50 Antiproli NCI-H23. Format: cell-based. Here is the method:
as §1, §2, §3, §4, §5

The test system of the next data set is A2058. The data set can be described thus: Antiproliferation assay A2058 (Assay 7). The settings on record: Homo sapiens; A2058 cells, 72 h, CellTiter-Glo; single determinations; read-out: IC50 Antiproli A2058. Format: cell-based. Here is the method: as §1, §2, §3, §4, §5
Data set [1] relates to SUDHL10. As to the kind of experiment: Antiproliferation assay SUDHL10 (Assay 7). Format: cell-based. The note with it: Homo sapiens, SU-DHL10; SUDHL10 cells, 72 h, CellTiter-Glo; median; read-out: IC50 Antiproli SUDHL10 [M] (median). Here is the method: as §1, §2, §3, §4, §5
Another data set has as its system BxPC-3. As to the kind of experiment: Antiproliferation assay BxPC-3 (Assay 7). It counts as cell-based. The note with it: Homo sapiens; BxPC-3 cells, 72 h, CellTiter-Glo; single determinations; read-out: IC50 Antiproli BxPC-3. How it is done: as §1, §2, §3, §4, §5
Data set [2] relates to SUDHL10.

As to `Cc1c2c(nn1C)COCCCCn1c(C(=O)O)c(CCCOc3cccc4ccccc34)c3ccc(F)c-2c31` (racemic) [Example 2, (rac)-4-fluoro-2,3-dimethyl-7-[3-(naphthalen-1-yloxy)propyl]-2,10,11,12,13,15-hexahydro-pyrazolo[4′,3′:9,10][1,6]oxazacycloundecino[8,7,6-hi]indole-8-carboxylic acid], the concentration for half-maximal inhibition (IC50) was 7.07 µM with SK-BR-3 (Homo sapiens, SK-BR-3, 72 h); 6.85 µM in the data set with SK-BR-3 (72 h, listed as 02); 7.56 µM in the data set with NCI-H23 (Homo sapiens, NCI-H23, 72 h); 9.56 µM in the data set with NCI-H23 (72 h, listed as 02); more than 33 µM in the data set on A2058.

On to `Cc1c2c(nn1C)COCCCCn1c(C(=O)O)c(CCCOc3cccc4c3CCCC4)c3ccc(F)c-2c31` (racemic) [Example 18, (rac)-13-fluoro-11,12-dimethyl-1-(3-((5,6,7,8-tetrahydronaphthalen-1-yl)oxy)propyl)-4,5,6,7,9,11-hexahydropyrazolo[4′,3′:9,10][1]oxa[6]azacycloundecino[8,7,6-hi]indole-2-carboxylic acid], for which, in the data set with SUDHL10 [1], the half-maximal inhibitory concentration (IC50) turned out to be 1.5e-06 M.

`Cc1c2c(nn1C)COCCCCn1c(C(=O)O)c(CCCOc3cccc4c3CCC4)c3ccc(F)c-2c31` (racemic) [Example 19, (rac)-1-(3-((2,3-dihydro-1H-inden-4-yl)oxy)propyl)-13-fluoro-11,12-dimethyl-4,5,6,7,9,11-hexahydropyrazolo[4′,3′:9,10][1]oxa[6]azacycloundecino[8,7,6-hi]indole-2-carboxylic acid]: in the data set with SUDHL10 [1], the concentration for half-maximal inhibition (IC50) was 1.5e-06 M.

Consider `Cc1nn(C)c2c1-c1c(F)ccc3c(CCCOc4cccc5cc(F)ccc45)c(C(=O)O)n(c13)CCCCOC2` (racemic) [Example 32, (rac)-13-fluoro-1-(3-((6-fluoronaphthalen-1-yl)oxy)propyl)-10,12-dimethyl-4,5,6,7,9,10-hexahydropyrazolo[4′,3′:9,10][1]oxa[6]azacycloundecino[8,7,6-hi]indole-2-carboxylic acid], for which, in the data set with SUDHL10 [1], the IC50 stood at 1.5e-06 M.

On to `Cc1c2c(nn1C)COCCCCn1c(C(=O)O)c(CCCOc3cccc4ccccc34)c3ccc(F)c-2c31` (single isomer, unassigned; enantiomer 1) [Example 3, 4-fluoro-2,3-dimethyl-7-[3-(naphthalen-1-yloxy)propyl]-2,10,11,12,13,15-hexahydropyrazolo-[4′,3′:9,10][1,6]oxazacycloundecino[8,7,6-hi]indole-8-carboxylic acid-N-ethylethanamine salt (enantiomer 1)], for which the concentration for half-maximal inhibition (IC50) in the data set on SK-BR-3 (Homo sapiens, SK-BR-3, 72 h) is 9.5 µM; in the data set with NCI-H23 (Homo sapiens, NCI-H23, 72 h), 6.94 µM; in the data set on A2058, more than 33 µM.

Regarding `CCc1c2c(nn1C)COCCCCn1c(C(=O)O)c(CCCOc3cccc4cc(F)ccc34)c3ccc(F)c-2c31` (single isomer, unassigned; enantiomer 1) [Example 22, 3-ethyl-4-fluoro-7-{3-[(6-fluoronaphthalen-1-yl)oxy]propyl}-2-methyl-2,10,11,12,13,15-hexahydropyrazolo[4′,3′:9,10][1,6]oxazacycloundecino[8,7,6-hi]indole-8-carboxylic acid-N-ethylethanamine salt (enantiomer 1)], the IC50 with BxPC-3 came to 23.5 µM.

With “(rac)-1-(3-((2,3-dihydro-1H-inden-4-yl)oxy)propyl)-12-ethyl-13-fluoro-11-methyl-4,5,6,7,9,11-hexahydropyrazolo[4′,3′:9,10][1]oxa[6]azacycloundecino[8,7,6-hi]indole-2-carboxylic acid [Example 30]”, the half-inhibitory concentration (IC50) in the data set on SUDHL5 is 1.1 µM; in the data set with SUDHL10 [2], 1.3 µM.
